Entries after “also recorded” stand apart in the source; their conditions may differ.
Legend:
[1] = excipient compatibility study with dry powder inhalation carriers; format: physicochemical
Procedure: Compatibility of epinephrine prodrugs Disobutyryl L-epinephrine (AQEP-09) and Dipivefrin was studied with common carriers used for dry powder inhalation applications. Lactose monohydrate, Lactose anhydrous and Mannitol were used for the stability evaluation. Mixtures of the micronized API and the carriers were tested under stability conditions, 25° C./60%RH and 40° C./75%RH.

[2] = aerodynamic particle size of exposure aerosol (Aerodynamic Particle Sizer); format: physicochemical; settings: exposure aerosol of micronized powder
Excerpt: Mass median aerodynamic diameter (MMAD) of AQEP-09 was 1.57 μm (Geometric Standard Deviation (GSD) 1.74) and MMAD for Dipivefrin was 1.47 μm (GSD 2.63).

[3] = esterase hydrolysis assay in human BAL fluid (prodrug stability); format: in vitro ADME; settings: Human BAL fluid from 2 subjects; 1 μM; stabilizer sodium metabisulfite 8.9 mM; LC-MS
Procedure: Epinephrine prodrugs were evaluated. In vitro inhalation models were employed.
Hydrolysis of dipivefrin or AQEP-09 was studied in vitro in Human BAL fluid by measuring the epinephrine concentration. Frozen BAL fluid was used from 2 subjects. Compounds were incubated at 1 μM in the presence of a stabilizer (sodium metabisulfite, 8.9 mM). Samples were removed after stopping the enzyme reaction using NaF or SigmaFast at different timepoints. Samples were extracted and analyzed by LC-MS method. […] Less than 5% hydrolysis was observed.

[4] = particle size distribution of jet-milled (micronized) prodrugs; format: physicochemical; settings: feed rate 840 g/hr
Procedure: Both dipivefrin and Diisobutyryl L-epinephrine were micronized using the jet milling process using nitrogen. The effect of pressure and feed rates were determined. The particle sizes of the micronized material are shown in the Table 1 and micronized/milled material suitable for drug powder inhalation (2-5 μm) were manufactured.

[5] = pharmacokinetics of epinephrine in Beagle dogs after bolus inhalation of prodrugs or IM EpiPen; format: in vivo; settings: inhalation 0.4 vs 0.2 mg/kg (target 2×)
[6] = system: human lung epithelial cells; test: LDH cytotoxicity / release assay in EpiAirway 3D culture; format: cell-based; settings: for toxicity / cell viability in the LDH assay: 0.1 mM, 1 mM, 2 mM; for cell viability in the LDH assay: 5 mM, 10 mM, 50 mM
Procedure: (§1) Epinephrine prodrugs were evaluated. In vitro inhalation models were employed. In particular, an esterase hydrolysis assay was employed using human branchoalveolar lavage (BAL) fluid to examine prodrug stability. A permeability assay using in vitro a 3D culture model (EpiAirways, MatTek) of human lung epithelial cells was also performed. The 3D culture system mimics the structure of lungs, allowing for study of the hydrolysis of prodrugs in the lungs by esterases and the systemic permeability data. The EpiAirway 3D culture includes a ciliated apical surface, mucociliary epithelium and microporous membrane.
(§2) Compounds were incubated at different concentrations (5 mM, 10 mM, and 50 mM). Cell viability was assessed by LDH Cytotoxicity Detection kit (Takara # MK401) and MTT tissue viability assay kit (MatTek, # MTT-100). Receiver media were removed at different timepoints, 0.5, 1, 2, 3, 4, 6 hrs to test permeability; Samples were extracted and analyzed by an LC-MS method.
(§3) Referring to FIGS. 3C-3D Dipivefrin and AQEP-09 toxicity and permeability using human lung epithelial cells was also studied in the EpiAirway model. Compounds were incubated at different concentrations (0.1 mM, 1 mM, 2 mM) and cell viability was assessed by LDH release assay and MTT assay. See, e.g., Aysun Adan, Yağmur Kiraz and Yusuf Baran, “Cell Proliferation and Cytotoxicity Assays”, Current Pharmaceutical Biotechnology (2016) 17: 1213, which is incorporated by reference in its entirety. Receiver media were removed at different timepoints, 1, 2, 3, 4 hrs to test permeability. Samples were extracted and analyzed by LC-MS method.

[7] = system: 3D culture model (EpiAirways, MatTek) of human lung epithelial cells
Procedure: as §1
In vitro permeability of the 3D culture was studied.
The Franz diffusion cell apparatus consists of two chambers separated by a membrane. The permeation studies were conducted using the 3D lung cell culture. The tissue membrane separates the donor compartment containing the prodrug and the receptor compartment containing the collection media whish was selected to provide sink conditions throughout the experiment.
as §2, §3

[8] = stability in sodium metabisulfite; format: physicochemical
Excerpt: A prodrug can present improved hydrophobicity, better permeation, dose reduction, and enhanced speed of absorption. It can also provide alternative compositions with unique stability profiles. […] A prodrug that is not absorbed in the stomach can also avoid, minimize or eliminate the side effect of epigastric pain. Moreover, a prodrug can result in reduced adrenergic receptor binding, resulting in reduced variability of vasoconstriction and more stability.

[9] = Lactose Anhydrous, 25° C./60% RH, 0 weeks
[10] = Lactose Anhydrous, 25° C./60% RH, 2 weeks
[11] = Lactose Anhydrous, 25° C./60% RH, 4 weeks
[12] = Lactose Anhydrous, 40° C./75% RH, 0 weeks
[13] = Lactose Anhydrous, 40° C./75% RH, 2 weeks
[14] = Lactose Anhydrous, 40° C./75% RH, 4 weeks
[15] = Lactose Monohydrate, 25° C./60% RH, 0 weeks
[16] = Lactose Monohydrate, 25° C./60% RH, 2 weeks
[17] = Lactose Monohydrate, 25° C./60% RH, 4 weeks
[18] = Lactose Monohydrate, 40° C./75% RH, 0 weeks
[19] = Lactose Monohydrate, 40° C./75% RH, 2 weeks
[20] = Lactose Monohydrate, 40° C./75% RH, 4 weeks
[21] = Mannitol, 25° C./60% RH, 0 weeks
[22] = Mannitol, 25° C./60% RH, 2 weeks
[23] = Mannitol, 25° C./60% RH, 4 weeks
[24] = Mannitol, 40° C./75% RH, 0 weeks
[25] = Mannitol, 40° C./75% RH, 2 weeks
[26] = Mannitol, 40° C./75% RH, 4 weeks
[27] = nitrogen milling pressure 1.5 bar
[28] = nitrogen milling pressure 3.5 bar

Structure (SMILES)	Assay (Percent Label Claim) [1, 9] [%]	Assay (Percent Label Claim) [1, 10] [%]	Assay (Percent Label Claim) [1, 11] [%]	Assay (Percent Label Claim) [1, 12] [%]	Assay (Percent Label Claim) [1, 13] [%]	Assay (Percent Label Claim) [1, 14] [%]	Assay (Percent Label Claim) [1, 15] [%]	Assay (Percent Label Claim) [1, 16] [%]	Assay (Percent Label Claim) [1, 17] [%]	Assay (Percent Label Claim) [1, 18] [%]	Assay (Percent Label Claim) [1, 19] [%]	Assay (Percent Label Claim) [1, 20] [%]	Assay (Percent Label Claim) [1, 21] [%]	Assay (Percent Label Claim) [1, 22] [%]	Assay (Percent Label Claim) [1, 23] [%]	Assay (Percent Label Claim) [1, 24] [%]	Assay (Percent Label Claim) [1, 25] [%]	Assay (Percent Label Claim) [1, 26] [%]	GSD [2]	MMAD [2] [μm]	other results
CNCC(O)c1ccc(OC(=O)C(C)C)c(OC(=O)C(C)C)c1 [AQEP-09, Diisobutyryl L-epinephrine]	100	103	103	100	97	87	100	100	97	100	94	83	100	96	96	100	95	84	1.74	1.57	hydrolysis to epinephrine [3]: minimal hydrolysis; Particle size d10 [4, 27]: d10-10.30 μm; Particle size d50 [4, 27]: d50-55.70 μm; Particle size d90 [4, 27]: d90-132.75 μm; Particle size d10 [4, 28]: d10-0.46 μm; Particle size d50 [4, 28]: d50-1.12 μm; Particle size d90 [4, 28]: d90-2.37 μm; Overall dose response [5]: slightly less than dose proportional; toxicity / cell viability in the LDH assay [6]: did not show any toxicity; also recorded: no or less toxicity; permeability compared to Dipivefrin [7]: lower permeability; increase in dose that shows comparable permeability to Dipivefrin ([7]; human): 50%
CNCC(O)c1ccc(OC(=O)C(C)(C)C)c(OC(=O)C(C)(C)C)c1 (stereo not drawn) [Dipivefrin]	100	100	96	100	99	95	100	101	96	100	96	81	100	101	98	100	101	95	2.63	1.47	hydrolysis to epinephrine [3]: minimal hydrolysis; Particle size d10 [4, 27]: d10-0.91 μm; Particle size d50 [4, 27]: d50-6.24 μm; Particle size d90 [4, 27]: d90-13.18 μm; Particle size d10 [4, 28]: d10-0.53 μm; Particle size d50 [4, 28]: d50-1.27 μm; Particle size d90 [4, 28]: d90-2.92 μm; stability in sodium metabisulfite [8]: unstable; toxicity / cell viability in the LDH assay [6]: lower cell viability; cell viability in the LDH assay ([6]; 6 h): cell viability was reduced at all doses; cell viability in the LDH assay ([6]; 24 hr): viability was improved; permeability in human lung model [7]: dose dependent permeability

— US20220233471A1, “PRODRUG COMPOSITIONS AND METHODS OF TREATMENT” (AQUESTIVE THERAPEUTICS, INC., priority 2021, published 2022)
